The values that follow come from the kinase profiling compilation of Christmann-Franck et al. (2016).

Common to all, as to experiment: Free Choice Kinase Assay Projects, Flashplate
In test [1] the target is ERBB2 (human) (UniProt P04626). The following applies: compound 10.0 µM; ATP 1 µM.
For test [2], the target named is IGF1R (human) (UniProt P08069). The following applies: compound 10.0 µM; ATP 1 µM.
Test [3] deals with MAP3K8 (human) (UniProt P41279). The conditions noted are these: compound 10.0 µM; ATP 3 µM.
The target in test [4] is PDGFRB (human) (UniProt P09619). The following applies: compound 10.0 µM; ATP 0.3 µM.
The target in test [5] is KDR (human) (UniProt P35968). The following applies: compound 10.0 µM; ATP 1 µM.
In test [6] the target is EPHB4 (human) (UniProt P54760). The following applies: compound 10.0 µM; ATP 1 µM.
Test [7] deals with TEK (human) (UniProt Q02763). The conditions noted are these: compound 10.0 µM; ATP 1 µM.
Chain of TEK (human) (Q02763 whole entry, looked up): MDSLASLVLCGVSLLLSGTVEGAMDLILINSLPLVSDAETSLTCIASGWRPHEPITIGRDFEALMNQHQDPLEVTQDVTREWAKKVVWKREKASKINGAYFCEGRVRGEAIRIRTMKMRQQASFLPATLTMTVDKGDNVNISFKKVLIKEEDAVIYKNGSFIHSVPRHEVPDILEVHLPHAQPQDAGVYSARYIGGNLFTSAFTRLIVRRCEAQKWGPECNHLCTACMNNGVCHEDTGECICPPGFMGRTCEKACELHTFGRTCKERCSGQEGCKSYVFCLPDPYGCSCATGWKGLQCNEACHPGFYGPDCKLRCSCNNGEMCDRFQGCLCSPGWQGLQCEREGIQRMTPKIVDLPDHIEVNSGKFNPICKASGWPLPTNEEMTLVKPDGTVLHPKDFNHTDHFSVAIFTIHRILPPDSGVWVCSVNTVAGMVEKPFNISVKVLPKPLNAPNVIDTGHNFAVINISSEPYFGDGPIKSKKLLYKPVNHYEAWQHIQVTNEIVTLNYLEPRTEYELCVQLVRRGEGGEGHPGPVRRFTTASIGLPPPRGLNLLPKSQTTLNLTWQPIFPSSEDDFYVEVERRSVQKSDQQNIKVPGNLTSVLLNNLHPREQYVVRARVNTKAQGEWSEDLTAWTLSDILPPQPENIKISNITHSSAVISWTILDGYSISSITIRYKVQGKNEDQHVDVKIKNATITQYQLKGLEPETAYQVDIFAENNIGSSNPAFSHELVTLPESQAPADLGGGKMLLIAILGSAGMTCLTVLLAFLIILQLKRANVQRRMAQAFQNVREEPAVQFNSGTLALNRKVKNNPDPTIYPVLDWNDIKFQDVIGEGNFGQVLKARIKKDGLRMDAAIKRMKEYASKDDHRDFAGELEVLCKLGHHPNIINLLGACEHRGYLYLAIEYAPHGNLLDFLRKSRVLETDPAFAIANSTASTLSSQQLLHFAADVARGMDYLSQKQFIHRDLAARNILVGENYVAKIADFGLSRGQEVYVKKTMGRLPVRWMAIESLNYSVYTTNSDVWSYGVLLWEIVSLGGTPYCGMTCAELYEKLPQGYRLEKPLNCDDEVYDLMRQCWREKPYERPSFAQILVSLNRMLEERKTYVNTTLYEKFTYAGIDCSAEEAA
For test [8], the target named is AKT1 (human) (UniProt P31749). The following applies: compound 10.0 µM; ATP 3 µM.
In test [9] the target is EGFR (human) (UniProt P00533). The conditions noted are these: compound 10.0 µM; ATP 0.3 µM.
The target of test [10] is NUAK1 (human) (UniProt O60285). The following applies: compound 10.0 µM; ATP 1 µM.
Chain of NUAK1 (human) (O60285 whole entry, looked up): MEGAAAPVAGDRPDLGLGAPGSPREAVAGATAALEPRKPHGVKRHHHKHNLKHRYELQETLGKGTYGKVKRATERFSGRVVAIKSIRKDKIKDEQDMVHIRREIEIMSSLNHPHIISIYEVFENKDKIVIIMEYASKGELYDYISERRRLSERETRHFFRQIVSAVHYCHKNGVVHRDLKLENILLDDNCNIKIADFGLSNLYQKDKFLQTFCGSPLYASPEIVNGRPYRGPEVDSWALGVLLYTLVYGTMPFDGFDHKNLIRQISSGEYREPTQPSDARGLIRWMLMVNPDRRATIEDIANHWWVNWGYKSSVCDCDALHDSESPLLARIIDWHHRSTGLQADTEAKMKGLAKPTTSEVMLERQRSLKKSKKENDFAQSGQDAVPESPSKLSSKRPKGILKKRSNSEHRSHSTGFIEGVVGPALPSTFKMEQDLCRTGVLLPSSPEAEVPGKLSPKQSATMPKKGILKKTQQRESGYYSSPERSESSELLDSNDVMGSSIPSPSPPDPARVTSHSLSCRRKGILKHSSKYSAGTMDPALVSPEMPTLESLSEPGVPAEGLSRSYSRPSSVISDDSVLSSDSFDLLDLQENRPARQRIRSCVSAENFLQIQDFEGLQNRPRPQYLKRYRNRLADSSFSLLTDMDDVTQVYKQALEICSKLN
For test [11], the target named is PLK1 (human) (UniProt P53350). The conditions noted are these: compound 10.0 µM; ATP 1 µM.
Test [12] deals with PLK4 (human) (UniProt O00444). The conditions noted are these: compound 10.0 µM; ATP 0.3 µM.
In test [13] the target is CSNK2A1 (human) (UniProt P68400). The conditions noted are these: compound 10.0 µM; ATP 0.1 µM.
Chain of CSNK2A1 (human) (P68400 whole entry, looked up): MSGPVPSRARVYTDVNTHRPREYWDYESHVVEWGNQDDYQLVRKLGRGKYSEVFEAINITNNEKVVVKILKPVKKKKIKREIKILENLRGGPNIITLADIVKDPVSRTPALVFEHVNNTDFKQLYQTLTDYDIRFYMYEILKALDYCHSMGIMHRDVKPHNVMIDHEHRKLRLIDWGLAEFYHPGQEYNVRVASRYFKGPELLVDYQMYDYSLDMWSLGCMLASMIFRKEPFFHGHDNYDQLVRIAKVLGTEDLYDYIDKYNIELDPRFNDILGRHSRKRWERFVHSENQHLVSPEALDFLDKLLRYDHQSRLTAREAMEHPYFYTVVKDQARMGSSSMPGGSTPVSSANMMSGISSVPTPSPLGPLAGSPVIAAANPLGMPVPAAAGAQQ
The target in test [14] is AURKA (human) (UniProt O14965). The conditions noted are these: compound 10.0 µM; ATP 10 µM.
Chain of AURKA (human) (O14965 whole entry, looked up): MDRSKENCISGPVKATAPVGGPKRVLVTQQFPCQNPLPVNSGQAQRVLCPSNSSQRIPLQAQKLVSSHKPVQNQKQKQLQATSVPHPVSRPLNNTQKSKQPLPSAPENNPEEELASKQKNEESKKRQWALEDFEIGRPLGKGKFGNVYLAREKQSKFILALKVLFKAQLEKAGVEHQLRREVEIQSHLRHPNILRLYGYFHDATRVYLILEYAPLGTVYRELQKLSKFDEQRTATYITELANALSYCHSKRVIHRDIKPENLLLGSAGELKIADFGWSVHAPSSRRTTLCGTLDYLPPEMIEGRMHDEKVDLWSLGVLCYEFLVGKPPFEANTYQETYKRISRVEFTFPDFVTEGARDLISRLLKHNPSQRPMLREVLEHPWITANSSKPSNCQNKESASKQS
Test [15] deals with MET (human) (UniProt P08581). The conditions noted are these: compound 10.0 µM; ATP 0.3 µM.
Chain of MET (human) (P08581 whole entry, looked up): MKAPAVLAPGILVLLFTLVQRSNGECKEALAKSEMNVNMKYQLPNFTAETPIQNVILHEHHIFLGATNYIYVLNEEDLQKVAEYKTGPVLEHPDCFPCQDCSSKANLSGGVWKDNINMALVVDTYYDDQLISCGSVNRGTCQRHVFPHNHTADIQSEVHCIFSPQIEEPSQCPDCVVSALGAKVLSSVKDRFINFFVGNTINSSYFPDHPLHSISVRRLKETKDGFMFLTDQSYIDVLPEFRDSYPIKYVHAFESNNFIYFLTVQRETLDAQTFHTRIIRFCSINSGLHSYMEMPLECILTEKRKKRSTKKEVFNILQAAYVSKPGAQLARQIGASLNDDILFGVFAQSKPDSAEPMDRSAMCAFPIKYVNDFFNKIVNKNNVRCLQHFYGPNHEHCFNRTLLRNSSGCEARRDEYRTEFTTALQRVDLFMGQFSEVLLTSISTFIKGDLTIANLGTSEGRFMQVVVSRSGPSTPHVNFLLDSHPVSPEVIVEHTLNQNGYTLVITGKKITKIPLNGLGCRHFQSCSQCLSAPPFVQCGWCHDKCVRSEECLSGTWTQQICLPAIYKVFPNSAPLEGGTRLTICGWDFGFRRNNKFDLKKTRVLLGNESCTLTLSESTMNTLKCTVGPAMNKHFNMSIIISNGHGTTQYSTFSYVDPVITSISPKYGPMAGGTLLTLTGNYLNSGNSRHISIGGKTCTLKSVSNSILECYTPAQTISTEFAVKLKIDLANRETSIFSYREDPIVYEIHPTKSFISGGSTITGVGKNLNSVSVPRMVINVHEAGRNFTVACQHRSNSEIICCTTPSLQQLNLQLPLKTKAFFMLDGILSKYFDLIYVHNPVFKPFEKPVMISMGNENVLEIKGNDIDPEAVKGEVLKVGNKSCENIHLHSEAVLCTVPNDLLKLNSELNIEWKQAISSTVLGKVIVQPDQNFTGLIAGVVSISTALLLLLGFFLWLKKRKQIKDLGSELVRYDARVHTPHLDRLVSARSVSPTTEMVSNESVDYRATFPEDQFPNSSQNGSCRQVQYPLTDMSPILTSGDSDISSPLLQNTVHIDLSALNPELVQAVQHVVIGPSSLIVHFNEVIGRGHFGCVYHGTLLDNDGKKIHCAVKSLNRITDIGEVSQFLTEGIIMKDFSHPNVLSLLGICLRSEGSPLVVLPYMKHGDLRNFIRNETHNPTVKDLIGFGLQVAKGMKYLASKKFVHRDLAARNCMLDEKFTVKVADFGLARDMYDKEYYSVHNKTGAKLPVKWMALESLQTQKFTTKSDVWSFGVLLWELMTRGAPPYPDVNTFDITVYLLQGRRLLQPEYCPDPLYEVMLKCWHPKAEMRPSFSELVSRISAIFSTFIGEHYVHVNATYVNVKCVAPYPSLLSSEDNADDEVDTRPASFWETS
The target in test [16] is AURKB (human) (UniProt Q96GD4). The following applies: compound 10.0 µM; ATP 10 µM.
Test [17] has as its target SRC (human) (UniProt P12931). The following applies: compound 10.0 µM; ATP 0.3 µM.
Test [18] addresses CDK4 CCND1 (human) (UniProt P11802+P24385). The following applies: compound 10.0 µM; ATP 3 µM.
For test [19], the target named is MAPK10 (human) (UniProt P53779). The conditions noted are these: compound 10.0 µM; ATP 0.3 µM.
The target of test [20] is AXL (human) (UniProt P30530). The following applies: compound 10.0 µM; ATP 0.3 µM.
Test [21] concerns the target CDK2 CCNA2 (human) (UniProt P24941+P20248). The conditions noted are these: compound 10.0 µM; ATP 0.3 µM.
Test [22] concerns the target MAPK14 (human) (UniProt Q16539). The following applies: compound 10.0 µM; ATP 1 µM.
Test [23] concerns the target PTK2 (human) (UniProt Q05397). The conditions noted are these: compound 10.0 µM; ATP 1 µM.

Chain of PTK2 (human) (Q05397 whole entry, looked up): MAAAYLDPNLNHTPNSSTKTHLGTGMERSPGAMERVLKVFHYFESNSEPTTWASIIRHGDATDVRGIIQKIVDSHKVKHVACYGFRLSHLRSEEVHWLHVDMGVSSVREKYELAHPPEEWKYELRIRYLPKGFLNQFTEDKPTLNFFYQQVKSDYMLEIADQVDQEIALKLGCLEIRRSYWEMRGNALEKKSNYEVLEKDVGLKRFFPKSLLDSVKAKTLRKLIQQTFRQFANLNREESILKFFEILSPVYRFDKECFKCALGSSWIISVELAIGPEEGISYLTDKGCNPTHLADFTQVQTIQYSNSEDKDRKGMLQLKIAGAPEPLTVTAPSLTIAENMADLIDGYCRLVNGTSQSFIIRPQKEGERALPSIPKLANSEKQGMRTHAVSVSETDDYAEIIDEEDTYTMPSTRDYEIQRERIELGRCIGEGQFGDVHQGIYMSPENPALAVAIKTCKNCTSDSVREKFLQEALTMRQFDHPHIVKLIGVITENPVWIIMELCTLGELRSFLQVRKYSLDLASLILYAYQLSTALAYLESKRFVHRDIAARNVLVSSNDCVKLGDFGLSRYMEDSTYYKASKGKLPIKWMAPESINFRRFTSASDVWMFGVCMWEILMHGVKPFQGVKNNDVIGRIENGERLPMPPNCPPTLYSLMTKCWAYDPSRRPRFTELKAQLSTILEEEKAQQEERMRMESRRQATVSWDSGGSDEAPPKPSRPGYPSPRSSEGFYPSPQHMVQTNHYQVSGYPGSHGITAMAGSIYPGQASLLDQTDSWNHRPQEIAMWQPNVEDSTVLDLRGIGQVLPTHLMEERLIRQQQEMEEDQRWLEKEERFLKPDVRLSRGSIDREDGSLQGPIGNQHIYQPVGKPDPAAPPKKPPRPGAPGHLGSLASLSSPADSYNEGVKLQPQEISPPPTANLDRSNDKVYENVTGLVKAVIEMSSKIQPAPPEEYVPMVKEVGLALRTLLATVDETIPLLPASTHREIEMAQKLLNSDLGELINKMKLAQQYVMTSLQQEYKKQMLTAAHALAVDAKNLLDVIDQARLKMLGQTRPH

For `CC(Nc1cc(-c2nc(SCc3ccccc3)[nH]c2-c2ccc(F)cc2)ccn1)c1ccccc1` (stereo unspecified), the residual activity in [1] amounted to 21%; in [2] it was 20%; in test [3], 50%; in test [4] it was 45%; in test [5], 39%; in [6], 31%. Also, the residual activity in test [7] amounted to 13%; in test [8], 66%; in test [9], 16%; in [10], 43%; in test [11], 38%; in test [12], 17%. The residual activity in test [13] was found to be 78%; in test [14], 64%; in test [15], 43%; in [16], 58%; in test [17], 14%; in test [18], 27%. For the same molecule, the residual activity in test [19] is 20%; in [20] it was 44%; in [21] it was 17%; in test [22], 3%; in [23], 82%.

For the molecule `Fc1ccc(-c2[nH]c(SCc3cccc4ccccc34)nc2-c2ccncc2)cc1`, the residual activity in test [1] was found to be 9%; in [2], 17%; in test [3] it was 46%; in test [4], 39%; in test [5] it was 24%; in test [6], 21%. The residual activity was determined as 11% in test [7]; 60% in test [8]; 8% in test [9]; 53% in test [10]; 46% in test [11]; 9% in test [12]. The residual activity in test [13] amounted to 77%; in test [14] it was 54%; in [15], 40%; in test [16], 57%; in [17], 8%; in test [18] it was 44%. The residual activity in [19] was determined as 17%; in test [20], 59%; in [21], 20%; in test [22], 3%; in test [23], 124%.

As for `On1c(/C=C/c2ccccc2)nc(-c2ccncc2)c1-c1ccc(F)cc1`, the residual activity was 4% in test [1]; 13% in test [2]; 48% in test [3]; 31% in test [4]; 9% in test [5]; 19% in test [6]. The residual activity in [7] is 5%; in [8] it was 76%; in [9], 1%; in test [10], 51%; in test [11] it was 51%; in test [12], 7%. Moreover, the residual activity amounted to 68% in [13]; 18% in test [14]; 23% in test [15]; 18% in test [16]; 5% in [17]; 21% in [18]. For the same molecule, the residual activity in test [19] came out at 9%; in test [20], 42%; in test [21] it was 20%; in test [22], 3%; in test [23], 65%.

For `Fc1ccc(-c2[nH]c(CCc3ccccc3)nc2-c2ccncc2)cc1`, the residual activity was 2% in test [1]; 18% in test [2]; 69% in test [3]; 20% in test [4]; 4% in [5]; 13% in [6]. Moreover, the residual activity in [7] stood at 9%; in [8], 76%; in test [9], 1%; in test [10] it was 89%; in test [11], 95%; in test [12], 26%. The residual activity in [13] was determined as 81%; in test [14], 44%; in test [15] it was 35%; in test [16] it was 50%; in test [17], 1%; in test [18], 99%. Besides, the residual activity is 14% in [19]; 54% in test [20]; 45% in test [21]; 0% in test [22]; 99% in test [23].

Turning to `CSc1ccc(CSc2nc(-c3ccncc3)c(-c3ccc(F)cc3)[nH]2)cc1`, the residual activity is 25% in test [1]; 23% in test [2]; 75% in test [3]; 53% in [4]; 33% in test [5]; 40% in [6]. The residual activity is 21% in test [7]; 100% in test [8]; 36% in test [9]; 122% in [10]; 115% in test [11]; 21% in test [12]. Also, the residual activity is 76% in [13]; 79% in test [14]; 51% in [15]; 71% in test [16]; 20% in test [17]; 84% in test [18]. Moreover, the residual activity was 72% in test [19]; 65% in test [20]; 42% in test [21]; 16% in test [22]; 130% in test [23].

`CSc1nc(-c2ccnc(NC(=O)C3CC3)c2)c(-c2ccc(F)cc2)n1C`: the residual activity in [1] turned out to be 17%; in [2], 53%; in [3] it was 104%; in test [4], 29%; in test [5], 2%; in [6], 9%. Further, the residual activity in test [7] is 8%; in test [8] it was 121%; in test [9], 11%; in [10], 109%; in test [11] it was 114%; in test [12], 56%. Also, the residual activity in [13] worked out at 89%; in test [14], 31%; in [15] it was 81%; in test [16] it was 47%; in test [17], 13%; in [18], 109%. For the same molecule, the residual activity was found to be 11% in test [19]; 18% in test [20]; 234% in test [21]; 1% in test [22]; 53% in test [23].

On to `On1c(CCc2ccccc2)nc(-c2ccncc2)c1-c1ccc(F)cc1`, for which the residual activity in test [1] is 2%; in [2], 17%; in test [3], 78%; in test [4], 37%; in test [5], 4%; in [6], 32%. Besides, the residual activity was determined as 18% in test [7]; 144% in test [8]; 1% in test [9]; 100% in [10]; 100% in test [11]; 16% in [12]. Moreover, the residual activity amounted to 82% in test [13]; 44% in test [14]; 44% in test [15]; 41% in test [16]; 4% in test [17]; 84% in test [18]. Besides, the residual activity in [19] amounted to 14%; in [20], 79%; in test [21], 54%; in [22], 0%; in test [23], 87%.
